The record followed here is ChEMBL document CHEMBL4888484, “Replenishing the malaria drug discovery pipeline: Screening and hit evaluation of the MMV Hit Generation Library 1 (HGL1) against asexual blood stage Plasmodium falciparum ,using a nano luciferase reporter read-out” (2022).

Series [1] relates to Plasmodium falciparum. Nature of the series: Hit confirmation in dose-response curve in Dd2 pLDH assay, at 72h. In kind it is functional, organism-based. On the set-up: timepoint 72 hour. Particulars: Dd2, Erythrocyte.
A short description of series [2]: Hit confirmation in dose-response curve in HepG2 cytotoxicity assay, at 72h. In kind it is toxicity, cell-based. Further details: timepoint 72 hour. Particulars: human, HepG2 cells.
Series [3] relates to Plasmodium falciparum. Nature of the series: Hit confirmation in dose-response curve in NF54 nanoGlo assay, at 72h. In kind it is functional, organism-based, Erythrocyte. Further details: timepoint 72 hour. Particulars: Plasmodium falciparum, NF54, Erythrocyte, 72 h.
Series [4] concerns Plasmodium falciparum. The experiment in a line: Hit confirmation in dose-response curve in NF54 nanoGlo assay, at 12h. In kind it is functional, organism-based, Erythrocyte. Further details: timepoint 12 hour. Particulars: Plasmodium falciparum, NF54, Erythrocyte, 12 h.
In series [5] the test system is Plasmodium falciparum. The experiment in a line: Hit confirmation in dose-response curve in NF54 pLDH assay, at 72h. The class given is functional, organism-based. Further details: timepoint 72 hour. Particulars: NF54, Erythrocyte.

With `CCc1cccc(NC(=O)N2CCC3(CC2)C(=O)N(CC(=O)Nc2ccc(F)cc2)CN3c2ccccc2)c1`, the IC50 in the series with Plasmodium falciparum [1] amounted to 6.76 µM; with Plasmodium falciparum [3] it was 3.02 µM; in the series on Plasmodium falciparum [4], 2.95 µM; in the series with Plasmodium falciparum [5], 10.7 µM. In series [2], this compound yielded an IC50 at 72 h of over 10 µM.
For `COc1cccc2c(=O)c3c([nH]c12)CCN(CC(=O)NCc1ccccc1Cl)C3` the same measures were 9.12 µM, 9.77 µM, over 10 µM, 10 µM and over 10 µM.
In the same order, the values of `Cc1ccc(S(=O)(=O)Nc2c(S(=O)(=O)c3ccc(C)cc3)c3nc4ccccc4nc3n2CCC(C)C)cc1` are 4.27 µM, 2.51 µM, 4.79 µM, 8.32 µM and over 10 µM.
In the same order, the values of `Cc1ccc(NC(=O)N2CCCN(c3ccc(NC(=O)c4cccs4)cc3C(=O)NCc3ccc(F)cc3)CC2)cc1` are over 10 µM, 3.63 µM, 6.92 µM, 7.94 µM and over 10 µM.
On to `O=C(NCc1ccccc1F)C1CCN(c2cncnc2N2CCCC2)CC1`, for which the IC50 in the series on Plasmodium falciparum [1] is 7.24 µM; in the series on Plasmodium falciparum [3] it was 3.55 µM; in the series on Plasmodium falciparum [4], 8.71 µM; in the series with Plasmodium falciparum [5], over 10 µM. Further, in series [2], the 50% inhibitory concentration (IC50) at 72 h was over 10 µM.
With `c1ccc(-c2cn3c(n2)c(-c2ccc4ccccc4n2)cc2ccccc23)cc1`, the half-maximal inhibitory concentration (IC50) in the series with Plasmodium falciparum [1] is over 10 µM; in the series with Plasmodium falciparum [3] it was 8.13 µM; in the series with Plasmodium falciparum [4] it was 10.5 µM; with Plasmodium falciparum [5], over 10 µM. The compound further showed a half-inhibitory concentration (IC50) at 72 h in series [2] of over 10 µM.
As to `c1ccc(-c2nc(C[n+]3ccc4c(c3)CCCC4)cs2)cc1`, the IC50 with Plasmodium falciparum [1] is 0.832 µM; with Plasmodium falciparum [3], 1.2 µM; with Plasmodium falciparum [4] it was over 10 µM; in the series on Plasmodium falciparum [5] it was 0.0891 µM. In series [2], this compound returned an IC50 at 72 h of over 10 µM.
As for `O[C@@]1(CN2CCC(COc3ccc4c(c3)CCC4)CC2)CCCNC1`, the IC50 came to 2.51 µM in the series on Plasmodium falciparum [1], 2.14 µM in the series on Plasmodium falciparum [3], 6.31 µM in the series with Plasmodium falciparum [4] and 3.47 µM in the series on Plasmodium falciparum [5]. This compound also showed a concentration for half-maximal inhibition (IC50) at 72 h in series [2] of over 10 µM.
In the same order, the values of `CCOc1ccc(C2c3[nH]c4ccccc4c3C[C@H]3C(=O)N(C4CCN(Cc5ccccc5)CC4)CC(=O)N23)cc1OC` (stereo not given in full) are 2.75 µM, 1.15 µM, 2.69 µM, 5.13 µM and over 10 µM.
In the same order, the values of `COc1cc(C(=O)Nc2ccc3sc(NC(=O)c4cc(OC)c(OC)c(OC)c4)nc3n2)cc(OC)c1OC` are 2.95 µM, 0.263 µM, 1.15 µM, 2.95 µM and over 10 µM.
In the same order, the values of `c1ccc(C2=NN(c3ccc(-c4cc(-c5ccccc5)[n+](-c5ccccc5)c(-c5ccccc5)c4)cc3)[C@H](c3ccccc3)C2)cc1` are 0.955 µM, 0.631 µM, 2.19 µM, 1.32 µM and 4.07 µM.
As for `CC(C)c1cccc(Nc2nc3ccncc3n(C(C)C)c2=O)c1`, the concentration for half-maximal inhibition (IC50) with Plasmodium falciparum [1] turned out to be 2.09 µM; in the series on Plasmodium falciparum [3], 1.66 µM; in the series with Plasmodium falciparum [4] it was 3.31 µM; in the series on Plasmodium falciparum [5], 2.82 µM. Besides, in series [2], the concentration for half-maximal inhibition (IC50) at 72 h was over 10 µM.
In the same order, the values of `CN(Cc1ccsc1)C(=O)c1cc2ccccc2[nH]1` are over 10 µM, over 10 µM, over 10 µM, over 10 µM and over 10 µM.
In the same order, the values of `COc1ccc(C(=O)Nc2ccc3c(c2)C(=O)Nc2cccnc2O3)cc1OC` are over 10 µM, 3.16 µM, 11 µM, over 10 µM and over 10 µM.
In the same order, the values of `Cc1nc2cc(NC(=O)[C@@]3(C)CCCN(C(=O)c4ccccc4)C3)ccc2o1` are over 10 µM, 1.58 µM, 0.525 µM, over 10 µM and over 10 µM.
Take `CCCn1ccnc1-c1cn(Cc2cc3ccccc3[nH]2)nn1`: the IC50 was 4.79 µM in the series on Plasmodium falciparum [1], 2.82 µM in the series on Plasmodium falciparum [3], over 10 µM in the series with Plasmodium falciparum [4] and 5.37 µM in the series on Plasmodium falciparum [5]. This compound had an IC50 at 72 h in series [2] of over 10 µM.
In the case of `O=C(Nc1cnc(-n2ccnc2)nc1)C(c1ccccc1)c1ccccc1`, the IC50 in the series on Plasmodium falciparum [1] is 5.25 µM; with Plasmodium falciparum [3], 2.45 µM; with Plasmodium falciparum [4] it was 7.94 µM; in the series with Plasmodium falciparum [5], 3.98 µM. Also, the IC50 at 72 h in series [2] was over 10 µM.
In the same order, the values of `O=C(CN1C=CCC=C1c1nc(-c2ccc(Br)cc2)cs1)c1ccccc1` are 3.55 µM, 2.63 µM, 5.89 µM, 3.47 µM and over 10 µM.
In the same order, the values of `c1ccc(CCNc2nc(-c3ccccn3)cs2)cc1` are 3.63 µM, 2.45 µM, over 10 µM, 3.24 µM and over 10 µM.
In the same order, the values of `CC[N+](C)(CC)CCOc1cc(C)c2ccccc2n1` are 2.69 µM, 2.24 µM, over 10 µM, 4.68 µM and over 10 µM.
For the compound `C[C@@H](CN)N(C)c1ccnc2cc(Br)cnc12`, the IC50 in the series on Plasmodium falciparum [1] was found to be 0.447 µM; with Plasmodium falciparum [3], 0.513 µM; in the series with Plasmodium falciparum [4], 0.661 µM; in the series on Plasmodium falciparum [5], 0.562 µM. This compound registered an IC50 at 72 h in series [2] of over 10 µM.
In the same order, the values of `CC(C)CC[C@@H](CCNC1CCN(C)CC1)c1ccc(Cl)cc1` are 2.19 µM, 1.66 µM, 2.82 µM, 2.4 µM and over 10 µM.
In the same order, the values of `COc1ccccc1N(Cc1ccccc1)C1=NC(=[N+](Cc2ccccc2)c2ccccc2OC)c2ccccc21` are 5.5 µM, 2.82 µM, 4.68 µM, 6.03 µM and over 10 µM.
For `COc1ccc(C)c2sc(N(CCCn3ccnc3)C(=O)Cc3ccc(F)cc3)nc12` the same measures were 4.37 µM, 1.95 µM, 2.95 µM, 4.37 µM and over 10 µM.
With `c1ccc2c[n+](Cc3ccc4ccccc4n3)ccc2c1`, the IC50 in the series with Plasmodium falciparum [1] was 2.45 µM; in the series with Plasmodium falciparum [3], 1.95 µM; with Plasmodium falciparum [4] it was over 10 µM; in the series with Plasmodium falciparum [5], 2.57 µM. In addition, the IC50 at 72 h in series [2] was over 10 µM.
For the compound `Cc1ccc(CN2CCN(C[C@@H](O)Cn3c4ccccc4n4c(=O)cc(C)c(C#N)c34)CC2)c(C)c1`, the IC50 with Plasmodium falciparum [1] worked out at 3.24 µM; in the series with Plasmodium falciparum [3] it was 1.35 µM; with Plasmodium falciparum [4], 1.62 µM; in the series with Plasmodium falciparum [5], 3.55 µM. This compound registered a half-inhibitory concentration (IC50) at 72 h in series [2] of over 10 µM.
For `CC1=CC(=[N+](CCO)CCO)C=C/C1=C(\c1ccc(N(CCO)CCO)cc1C)c1ccccc1Cl` the same measures were 0.0871 µM, 0.0871 µM, 7.41 µM, 0.166 µM and over 10 µM.
In the same order, the values of `CC(CC1OCC(C[N+]2(Cc3ccccc3)CCCCC2)O1)CC(C)(C)C` (stereo not given) are 2.51 µM, 0.912 µM, over 10 µM, 2.04 µM and over 10 µM.
Take `Cc1oc2ncn(CCN3CCCC3)c(=O)c2c1C(=O)Nc1ccc(C#N)cc1`: the IC50 is 6.46 µM with Plasmodium falciparum [1], 2.63 µM with Plasmodium falciparum [3], 2.75 µM in the series on Plasmodium falciparum [4] and 10.7 µM in the series on Plasmodium falciparum [5]. The compound also showed an IC50 at 72 h in series [2] of over 10 µM.
Turning to `O=C(N[C@@H](Cn1nccn1)c1ccccc1)c1cc(Br)ccc1Cl`, the IC50 in the series on Plasmodium falciparum [1] is 2.95 µM; in the series on Plasmodium falciparum [3] it was 1.74 µM; in the series on Plasmodium falciparum [4] it was over 10 µM; in the series with Plasmodium falciparum [5], 2.75 µM. This compound returned a concentration for half-maximal inhibition (IC50) at 72 h in series [2] of over 10 µM.
For `COc1ccc(C(=O)N(C(=O)c2ccc(OC)cc2)c2c3c(nc4ccccc24)CCCC3)cc1`, the IC50 was determined as 3.89 µM in the series on Plasmodium falciparum [1], 2.29 µM in the series with Plasmodium falciparum [3], 3.24 µM in the series on Plasmodium falciparum [4] and 4.9 µM with Plasmodium falciparum [5]. In series [2], this compound came in with an IC50 at 72 h of over 10 µM.
For `Oc1cccc(CN[C@H]2CCCc3occc32)c1Cl` the same measures were 2.75 µM, 1.58 µM, 2.04 µM, 2.75 µM and over 10 µM.
In the same order, the values of `CCC[N+]1(CC#C[C@@](O)(c2ccccc2)C(C)(CC)CC)CCCCC1` are 4.27 µM, 3.39 µM, over 10 µM, 4.37 µM and over 10 µM.
For `Cc1ccc(S(=O)(=O)Nc2c(S(=O)(=O)c3ccccc3)c3nc4ccccc4nc3n2CCc2ccccc2)cc1` the same measures were 5.13 µM, 2.14 µM, 3.63 µM, 6.76 µM and over 10 µM.
With `O=C1NC(c2ccccc2)=NC12CCN(Cc1c(F)cccc1F)CC2`, the IC50 in the series with Plasmodium falciparum [1] is 4.27 µM; in the series with Plasmodium falciparum [3] it was 2.09 µM; with Plasmodium falciparum [4], over 10 µM; in the series on Plasmodium falciparum [5] it was 6.46 µM. This compound also came in with an IC50 at 72 h in series [2] of over 10 µM.
In the case of `Fc1cnc(OC2Cc3ccccc3C2)nc1`, the concentration for half-maximal inhibition (IC50) with Plasmodium falciparum [1] was over 10 µM; in the series on Plasmodium falciparum [3] it was 1.86 µM; with Plasmodium falciparum [4] it was over 10 µM; in the series on Plasmodium falciparum [5] it was 3.24 µM. Also, the IC50 at 72 h in series [2] was over 10 µM.
For the compound `CCOc1cc(-c2cc(-c3ccccc3O)nc3ccc4ccccc4c23)cc(Br)c1O`, the IC50 in the series with Plasmodium falciparum [1] is 2.63 µM; in the series on Plasmodium falciparum [3], 1.62 µM; with Plasmodium falciparum [4] it was 3.63 µM; in the series with Plasmodium falciparum [5] it was 2.82 µM. In series [2], this compound gave a 50% inhibitory concentration (IC50) at 72 h of over 10 µM.

In general, IC50 refers to the concentration needed to halve the response being measured. High values mean weaker potency in that assay, low ones greater potency in that assay.
